Several values for one entry are separate records, joined by “and”; a condition that tells them apart may be missing. Identical values can stand only once. Like-named read-outs stand apart in the source and are kept apart here.
Assays:
[1] = test system: RN46A-B14 serotonergic cell line; assay: Histone H3K9 acetylation in RN46A-B14 cells (Western blot); type: cell-based, rat; settings: 2.5 μM, 4 hours
[2] = test system: α-tubulin K40 acetylation in cortex, hippocampus, DRN, cerebellum; assay: α-tubulin acetylation in brain regions after subchronic administration, WT and HDAC6 KO mice; type: in vivo, mouse
Description: Results are shown as percent change normalized to the vehicle treatment condition. The horizontal hard line depicts average and the dotted lines depict SEM of the vehicle treated wells. Representative Western blot images are presented. […] Representative Western blot images are presented. […] […] The changes in tubulin acetylation were measured in tissue lysates from cortex (ctx), hippocampus (Hpc), dorsal Raphe nucleus (DRN) and cerebellum (cb). The tubulin acetylation levels in drug-treated mice are expressed as percent change of the vehicle-treated mice of the corresponding genotype. The horizontal lines depict the average tubulin acetylation±SEM in the vehicle treated mice. The representative Western blot images show the changes induced by each drug treatment in the hippocampus (left column) and dorsal raphe (right column) of WT and HDAC6 KO mice.

[3] = test system: mice; assay: Chronic social defeat (CSD) and social interaction test; type: in vivo, mouse; settings: after CSD; fluoxetine 20 mg/kg, compound 73 5 mg/kg, compound 101 50 mg/kg
Description: Additionally, when combined with a dose of Citalopram with lower activity, these compounds seemed to have an additive effect (See FIG. 10). The dose of Citalopram chosen for this experiment was based on literature stating 2 mg/kg should be subactive, but this dose was found still showing an effect. Mice then underwent chronic social defeat stress, in which the mice are exposed to an aggressive resident mouse for 5 minutes daily for 10 days and are then tested on the 11th day in the social interaction test. Mice treated with vehicle for 20 total days, beginning 10 days before the defeat, show reduced time spent in the interaction zone when a target mouse is present when compared with control mice. […] The percent of mice found to be resilient, defined as spending more time in the interaction zone than the lowest control (i.e. ˜52 s), is higher in HDAC6 inhibitor groups. All behavior testing done using NIH Swiss mice, age 6-10 weeks. Tukey post-hoc analysis: * P=0.01 to 0.05, ** P=0.001-0.01, ***P<0.001 compared with vehicle treated mice.
The effects were observed 30 minutes after acute 50 mg/kg i.p. injection, but not for the lower dose (5 mg/kg). Combination of subactive doses of the HDAC6 selective inhibitors (5 mg/kg) and citalopram (0.5 mg/kg) produced robust potentiation of anti-immobility activity (n=8-29 per condition). […] No difference was observed between HDAC6 WT and KO when treated with the vehicle (n=6-15 per condition). FIG. 16c is a timeline showing treatment period, social defeat and social interaction (SI) testing.
A pro-resilient phenotype in the mouse CSD paradigm after serotonin-selective KO of HDAC6 was previously reported (Espallergues et al, 2012). Whether a chronic pharmacological inhibition of HDAC6 can replicate that phenotype is studied. […] On day 21, 24 h after the last injection, the mice were tested in the social interaction test. […] Significant effects were also observed when data was evaluated in terms of proportion of mice reaching criterion for resiliency.

[4] = Pharmacokinetics and brain bio-distribution in mice; type: in vivo, mouse; settings: mouse; for Kp: brain, calculated over 2 hours
Description: […] Plasma samples were taken from all mice upon sacrifice. Brain samples were taken from the mice sacrificed at 5 and 15 minutes and 1 and 4 hours. The brain samples were homogenized in PBS and centrifuged at 14000 rpm for 5 minutes. The supernatant from the brain homogenate and the plasma samples were injected onto a LC/MS/MS for analysis. The compound level in the samples was determined by a standard curve in the appropriate matrix. Pharmacokinetic parameters were determined from the raw data by WinNonLin.

[5] = biological target: T1, HDAC6 (Homo sapiens, UniProt Q9UBN7); assay: HDAC enzyme assay, HDAC6
T1 sequence (Q9UBN7 1-1215): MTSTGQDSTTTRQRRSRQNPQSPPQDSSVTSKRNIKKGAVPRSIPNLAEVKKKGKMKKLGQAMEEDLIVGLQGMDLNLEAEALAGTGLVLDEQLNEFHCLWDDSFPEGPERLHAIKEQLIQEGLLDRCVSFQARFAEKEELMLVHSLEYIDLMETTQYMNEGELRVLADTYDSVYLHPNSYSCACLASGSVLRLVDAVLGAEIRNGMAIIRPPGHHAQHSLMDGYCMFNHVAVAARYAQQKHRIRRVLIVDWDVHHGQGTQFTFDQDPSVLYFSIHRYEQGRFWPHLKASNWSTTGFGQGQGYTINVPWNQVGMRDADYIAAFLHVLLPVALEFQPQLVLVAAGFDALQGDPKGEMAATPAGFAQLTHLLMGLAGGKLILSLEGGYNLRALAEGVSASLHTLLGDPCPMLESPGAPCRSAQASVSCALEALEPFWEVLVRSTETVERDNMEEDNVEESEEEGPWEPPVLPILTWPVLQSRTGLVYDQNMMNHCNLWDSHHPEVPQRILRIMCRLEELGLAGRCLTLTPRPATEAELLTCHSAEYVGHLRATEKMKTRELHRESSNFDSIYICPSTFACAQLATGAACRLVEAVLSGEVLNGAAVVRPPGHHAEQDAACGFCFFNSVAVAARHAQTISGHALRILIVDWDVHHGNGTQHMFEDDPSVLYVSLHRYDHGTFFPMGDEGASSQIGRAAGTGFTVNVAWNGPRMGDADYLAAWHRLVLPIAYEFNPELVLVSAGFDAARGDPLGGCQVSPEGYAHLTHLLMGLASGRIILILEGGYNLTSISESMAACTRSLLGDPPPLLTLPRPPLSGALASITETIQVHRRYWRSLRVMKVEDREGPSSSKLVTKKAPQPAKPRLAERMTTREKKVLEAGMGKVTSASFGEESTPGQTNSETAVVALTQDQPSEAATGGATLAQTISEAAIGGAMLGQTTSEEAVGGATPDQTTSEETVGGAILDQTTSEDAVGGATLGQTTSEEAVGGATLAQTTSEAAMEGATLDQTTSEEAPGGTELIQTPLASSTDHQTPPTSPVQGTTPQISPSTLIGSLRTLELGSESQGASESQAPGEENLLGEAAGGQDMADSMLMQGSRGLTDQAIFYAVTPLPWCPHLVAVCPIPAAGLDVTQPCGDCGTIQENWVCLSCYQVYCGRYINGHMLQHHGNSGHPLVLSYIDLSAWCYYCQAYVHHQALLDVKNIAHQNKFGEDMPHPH

[6] = test system: all other class II HDAC isoforms; assay: HDAC inhibition, other class II isoforms; settings: read-out: IC50 against all other class II HDAC isoforms

O=C(NO)c1cnc(NC2(c3cccc(F)c3)CCCCC2)nc1 [Compound 101, 2-((1-(3-fluorophenyl)cyclohexyl)amino)-N-hydroxypyrimidine-5-carboxamide]
change in histone H3K9 acetylation [1]: no significant change | α-tubulin acetylation over baseline levels ([2]; HDAC6 KO mice, identical treatment regimens): did not produce increases | α-tubulin acetylation in cortex, hippocampus, DRN, cerebellum ([2]; wild-type mice, 24 h, 4 h, 30 m before sacrifice, compound 73 5 mg/kg, compound 101 50 mg/kg): significant increases | percentage of resilient mice [3]: 58% | Kp ([4]; C57BL/6J, intraperitoneal, read-out: AUCBrain/AUCplasma): 1.26 | concentration at 30 min ([4]; C57BL/6J, plasma, intraperitoneal, 5 mg/kg, read-out: 30 min plasma concentration (ng/ml) - 5 mg/kg): 496 ng/mL | concentration at 30 min ([4]; C57BL/6J, plasma, intraperitoneal, 50 mg/kg, read-out: 30 min plasma concentration (ng/ml) - 50 mg/kg): 1360 ng/mL | Cmax ([4]; C57BL/6J, plasma, ip, 5 mg/kg, mice, acute i.p. dosing, read-out: Cmax): 915 ng/mL | half-life ([4]; C57BL/6J, plasma, ip, mice, acute i.p. dosing, read-out: T½ plasma (converted)): 30 min | Kp ([4]; intraperitoneal, read-out: AUCBrain/AUCplasma ratio): > 1 | concentration at 30 min ([4]; plasma, intraperitoneal, acute 50 mg/kg injection, read-out: plasma level at t=30 minutes): 1360 ng/mL and 4.1 µM | concentration at 2 h ([4]; plasma, intraperitoneal, read-out: plasma concentration after two hours): < 10 ng/mL | half-life ([4]; plasma, intraperitoneal, read-out: plasmatic half-life): 12 min | IC50 [5]: 7.5 nM | average selectivity over class I HDACs [5]: 700 fold | IC50 [6]: > 1000 nM

— patent US20150250786A1, “PYRIMIDINE HYDROXY AMIDE COMPOUNDS AS PROTEIN DEACETYLASE INHIBITORS AND METHODS OF USE THEREOF” (THE TRUSTEES OF THE UNIVERSITY OF PENNSYLVANIA, priority 2012, published 2015)
